# Measurements from PubChem BioAssay AID2060885 (Molecular Pharmacology Branch, DTP, NCI, 2025).
# System: NCI-H23 complex spheroids with HUVEC/MSC, viability
# Test: Anticancer human tumor NCI-H23 cell line growth inhibition [RAS];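 further: spheroids exposed to compound for 7 days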;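 on viability, T/C: 100% = DMSO vehicle control viability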
# Conditions: for IC50: curve of first compound; for viability, T/C: stronger effect = lower value
# Outline: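 Tumour cells grown as complex spheroids with HUVEC endothelial cells and mesenchymal stem cells, treated with RAS pathway inhibitor combinations. Each agent spans half-log steps from near clinical Cmax, or 10 microM where Cmax is unknown.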
# [1] = second compound 0.000949 µM, first compound 0.0316 µM
# [2] = second compound 0.000949 µM, first compound 0.1 µM
# [3] = second compound 0.000949 µM, first compound 0.316 µM
# [4] = second compound 0.000949 µM, first compound 1 µM
# [5] = second compound 0.003 µM, first compound 0.0316 µM
# [6] = second compound 0.003 µM, first compound 0.1 µM
# [7] = second compound 0.003 µM, first compound 0.316 µM
# [8] = second compound 0.003 µM, first compound 1 µM
# [9] = second compound 0.00949 µM, first compound 0.0316 µM
# [10] = second compound 0.00949 µM, first compound 0.1 µM
# [11] = second compound 0.00949 µM, first compound 0.316 µM
# [12] = second compound 0.00949 µM, first compound 1 µM
# [13] = second compound 0.03 µM, first compound 0.0316 µM
# [14] = second compound 0.03 µM, first compound 0.1 µM
# [15] = second compound 0.03 µM, first compound 0.316 µM
# [16] = second compound 0.03 µM, first compound 1 µM
# [17] = second compound 0.0949 µM, first compound 0.0316 µM
# [18] = second compound 0.0949 µM, first compound 0.1 µM
# [19] = second compound 0.0949 µM, first compound 0.316 µM
# [20] = second compound 0.0949 µM, first compound 1 µM
# [21] = second compound 0.3 µM, first compound 0.0316 µM
# [22] = second compound 0.3 µM, first compound 0.1 µM
# [23] = second compound 0.3 µM, first compound 0.316 µM
# [24] = second compound 0.3 µM, first compound 1 µM
# [25] = second compound 0.000949 µM, first compound 3.16 µM
# [26] = second compound 0.000949 µM, first compound 10 µM
# [27] = second compound 0.003 µM, first compound 3.16 µM
# [28] = second compound 0.003 µM, first compound 10 µM
# [29] = second compound 0.00949 µM, first compound 3.16 µM
# [30] = second compound 0.00949 µM, first compound 10 µM
# [31] = second compound 0.03 µM, first compound 3.16 µM
# [32] = second compound 0.03 µM, first compound 10 µM
# [33] = second compound 0.0949 µM, first compound 3.16 µM
# [34] = second compound 0.0949 µM, first compound 10 µM
# [35] = second compound 0.3 µM, first compound 3.16 µM
# [36] = second compound 0.3 µM, first compound 10 µM
structure (smiles),measurement,setting,value
CCN1CCN(Cc2ccc(Nc3ncc(F)c(-c4cc(F)c5nc(C)n(C(C)C)c5c4)n3)nc2)CC1 + CCn1c(-c2cc(N3CCN(C)CC3)cnc2C(C)OC)c2c3cc(ccc31)-c1csc(n1)CC(NC(=O)C1CC1C)C(=O)N1CCCC(N1)C(=O)OCC(C)(C)C2,IC50,second compound 0.000949 µM,< 3.16 nM
same,IC50,second compound 0.003 µM,< 3.16 nM
same,IC50,second compound 0.00949 µM,< 3.16 nM
same,IC50,second compound 0.03 µM,< 3.16 nM
same,IC50,second compound 0.0949 µM,< 3.16 nM
same,IC50,second compound 0.3 µM,< 3.16 nM
same,"viability, T/C","second compound 0.000949 µM, first compound 0.00316 µM",37.3%
same,"viability, T/C","second compound 0.000949 µM, first compound 0.01 µM",32.9%
same,"viability, T/C",[1],18.3%
same,"viability, T/C",[2],20.1%
same,"viability, T/C",[3],17.9%
same,"viability, T/C",[4],12.9%
same,"viability, T/C","second compound 0.003 µM, first compound 0.00316 µM",29.6%
same,"viability, T/C","second compound 0.003 µM, first compound 0.01 µM",22.1%
same,"viability, T/C",[5],16%
same,"viability, T/C",[6],16.8%
same,"viability, T/C",[7],14.3%
same,"viability, T/C",[8],12.3%
same,"viability, T/C","second compound 0.00949 µM, first compound 0.00316 µM",29%
same,"viability, T/C","second compound 0.00949 µM, first compound 0.01 µM",21.5%
same,"viability, T/C",[9],17.2%
same,"viability, T/C",[10],16.2%
same,"viability, T/C",[11],12.9%
same,"viability, T/C",[12],10.4%
same,"viability, T/C","second compound 0.03 µM, first compound 0.00316 µM",23.1%
same,"viability, T/C","second compound 0.03 µM, first compound 0.01 µM",17.9%
same,"viability, T/C",[13],18.9%
same,"viability, T/C",[14],14%
same,"viability, T/C",[15],9.41%
same,"viability, T/C",[16],14.5%
same,"viability, T/C","second compound 0.0949 µM, first compound 0.00316 µM",16.1%
same,"viability, T/C","second compound 0.0949 µM, first compound 0.01 µM",16%
same,"viability, T/C",[17],13.7%
same,"viability, T/C",[18],10.7%
same,"viability, T/C",[19],10.1%
same,"viability, T/C",[20],13.1%
same,"viability, T/C","second compound 0.3 µM, first compound 0.00316 µM",14.8%
same,"viability, T/C","second compound 0.3 µM, first compound 0.01 µM",16.5%
same,"viability, T/C",[21],12.8%
same,"viability, T/C",[22],10.4%
same,"viability, T/C",[23],10.6%
same,"viability, T/C",[24],12.6%
Cc1nc(N2CCC3(CC2)COC(C)C3N)c(CO)nc1Sc1ccnc(N)c1Cl (stereo unspecified) + CCn1c(-c2cc(N3CCN(C)CC3)cnc2C(C)OC)c2c3cc(ccc31)-c1csc(n1)CC(NC(=O)C1CC1C)C(=O)N1CCCC(N1)C(=O)OCC(C)(C)C2,IC50,second compound 0.000949 µM,< 31.6 nM
same,IC50,second compound 0.003 µM,< 31.6 nM
same,IC50,second compound 0.00949 µM,< 31.6 nM
same,IC50,second compound 0.03 µM,< 31.6 nM
same,IC50,second compound 0.0949 µM,< 31.6 nM
same,IC50,second compound 0.3 µM,< 31.6 nM
same,"viability, T/C",[1],40.2%
same,"viability, T/C",[2],33.2%
same,"viability, T/C",[3],22.9%
same,"viability, T/C",[4],26.2%
same,"viability, T/C",[25],18.7%
same,"viability, T/C",[26],13.7%
same,"viability, T/C",[5],35%
same,"viability, T/C",[6],25.4%
same,"viability, T/C",[7],21.2%
same,"viability, T/C",[8],21%
same,"viability, T/C",[27],15%
same,"viability, T/C",[28],10.5%
same,"viability, T/C",[9],30.2%
same,"viability, T/C",[10],19.9%
same,"viability, T/C",[11],20%
same,"viability, T/C",[12],17.1%
same,"viability, T/C",[29],11.5%
same,"viability, T/C",[30],7.55%
same,"viability, T/C",[13],24.4%
same,"viability, T/C",[14],22.5%
same,"viability, T/C",[15],18%
same,"viability, T/C",[16],14.1%
same,"viability, T/C",[31],8.53%
same,"viability, T/C",[32],7.44%
same,"viability, T/C",[17],17.3%
same,"viability, T/C",[18],17.8%
same,"viability, T/C",[19],14.6%
same,"viability, T/C",[20],10.8%
same,"viability, T/C",[33],7.63%
same,"viability, T/C",[34],7.62%
same,"viability, T/C",[21],17.4%
same,"viability, T/C",[22],17.8%
same,"viability, T/C",[23],12.3%
same,"viability, T/C",[24],9.93%
same,"viability, T/C",[35],7.11%
same,"viability, T/C",[36],5.57%
NC1c2ccccc2OC12CCN(c1cnc3c(N4CCCc5ncccc54)n[nH]c3n1)CC2 (stereo unspecified) + CCn1c(-c2cc(N3CCN(C)CC3)cnc2C(C)OC)c2c3cc(ccc31)-c1csc(n1)CC(NC(=O)C1CC1C)C(=O)N1CCCC(N1)C(=O)OCC(C)(C)C2,IC50,second compound 0.000949 µM,< 31.6 nM
same,IC50,second compound 0.003 µM,< 31.6 nM
same,IC50,second compound 0.00949 µM,< 31.6 nM
same,IC50,second compound 0.03 µM,< 31.6 nM
same,IC50,second compound 0.0949 µM,< 31.6 nM
same,IC50,second compound 0.3 µM,< 31.6 nM
same,"viability, T/C",[1],29%
same,"viability, T/C",[2],22.1%
same,"viability, T/C",[3],15.2%
same,"viability, T/C",[4],15.1%
same,"viability, T/C",[25],10.4%
same,"viability, T/C",[26],7.21%
same,"viability, T/C",[5],23.4%
same,"viability, T/C",[6],15.7%
same,"viability, T/C",[7],12.3%
same,"viability, T/C",[8],8.99%
same,"viability, T/C",[27],8.38%
same,"viability, T/C",[28],5.79%
same,"viability, T/C",[9],19.4%
same,"viability, T/C",[10],13.9%
same,"viability, T/C",[11],9.85%
same,"viability, T/C",[12],7.3%
same,"viability, T/C",[29],5.1%
same,"viability, T/C",[30],5.27%
same,"viability, T/C",[13],15.7%
same,"viability, T/C",[14],12.8%
same,"viability, T/C",[15],8.98%
same,"viability, T/C",[16],5.94%
same,"viability, T/C",[31],4.97%
same,"viability, T/C",[32],5.95%
same,"viability, T/C",[17],12.9%
same,"viability, T/C",[18],9.83%
same,"viability, T/C",[19],6.34%
same,"viability, T/C",[20],5.78%
same,"viability, T/C",[33],4.29%
same,"viability, T/C",[34],6.19%
same,"viability, T/C",[21],11%
same,"viability, T/C",[22],7.93%
same,"viability, T/C",[23],6.42%
same,"viability, T/C",[24],4.7%
same,"viability, T/C",[35],4.58%
same,"viability, T/C",[36],5.26%
